Source: patent US5036070A, “Polycyclic phenalkyl amines as psychotropic agents” (American Home Products Corporation, priority 1990, dated 1991)

How the values were obtained:
dopamine D-2 receptor = biological target: T1, dopamine D-2 receptor (Rattus norvegicus, UniProt P61169); experiment: Dopamine D-2 receptor binding ([3H]-spiroperidol, homogenized limbic brain tissue)
T1 construct: from tissue; host or cells: homogenized limbic brain tissue
Description: High affinity for the dopamine D-2 receptor was established by the standard experimental test procedure of Fields et al., Brain Res., 136, 578 (1977) and Yamamura et al., eds. Neutrotransmitter Receptor Binding, Raven Press, N.Y. (1978) wherein homogenized limbic brain tissue is incubated with ^3 H-spiroperidol and various concentrations of test compound, filtered and washed and shaken with Hydrofluor scintillation cocktail (National Diagnostics) and counted in a Packard 460 CD scintillation counter.

[1] = biological target: T2, 5-HT1A serotonin receptor (Rattus norvegicus, UniProt P19327); experiment: Serotonin 5-HT1A receptor binding (displacement of [3H]-8-OHDPAT); set-up: from tissue; conditions: [3H]-8-OHDPAT displacement
T2 sequence (P19327 1-422): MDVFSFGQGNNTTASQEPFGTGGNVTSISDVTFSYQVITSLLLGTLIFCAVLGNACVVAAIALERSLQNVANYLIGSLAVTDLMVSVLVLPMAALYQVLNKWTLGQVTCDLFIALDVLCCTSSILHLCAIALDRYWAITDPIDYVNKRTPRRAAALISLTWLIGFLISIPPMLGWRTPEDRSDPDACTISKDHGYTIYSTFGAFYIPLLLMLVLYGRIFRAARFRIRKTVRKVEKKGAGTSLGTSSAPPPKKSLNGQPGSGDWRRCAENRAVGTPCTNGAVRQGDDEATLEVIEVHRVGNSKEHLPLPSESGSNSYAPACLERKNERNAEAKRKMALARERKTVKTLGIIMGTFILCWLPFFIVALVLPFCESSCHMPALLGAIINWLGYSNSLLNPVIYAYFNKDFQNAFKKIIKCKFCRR
Text: High affinity for the serotonin 5-HT1A receptor was established by testing the claimed compounds ability to displace [^3 H]-8-OHDPAT (dipropylaminotetralin) from the 5-HT1A serotonin receptor following the procedure of Hall et al., J. Neurochem. 44, 1685 (1985). […] The anxiolytic activity of buspirone is believed to be, at least partially, due to its 5-HT1A receptor affinity (Vander Maclen et al., Eur. J. Pharmacol. 1986, 129 (1-2), 133-130.

[2] = biological target: T2, 5-HT1A serotonin receptor; conditions: standard for anxiolytic activity; cited from earlier work

T1 sequence (P61169 whole entry): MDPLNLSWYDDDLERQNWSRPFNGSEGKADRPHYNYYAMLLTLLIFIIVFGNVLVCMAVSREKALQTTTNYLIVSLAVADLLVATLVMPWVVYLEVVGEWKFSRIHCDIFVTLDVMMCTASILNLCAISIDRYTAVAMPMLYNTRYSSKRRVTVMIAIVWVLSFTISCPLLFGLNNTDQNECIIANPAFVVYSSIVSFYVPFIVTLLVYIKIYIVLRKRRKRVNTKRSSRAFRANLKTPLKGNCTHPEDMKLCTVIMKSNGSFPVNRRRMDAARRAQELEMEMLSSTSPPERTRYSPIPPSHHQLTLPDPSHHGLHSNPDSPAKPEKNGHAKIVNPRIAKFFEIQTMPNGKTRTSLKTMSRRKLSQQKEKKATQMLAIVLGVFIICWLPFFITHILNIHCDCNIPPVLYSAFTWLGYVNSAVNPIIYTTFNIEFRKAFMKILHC

| Compound | inhibition at 1 µM (dopamine D-2 receptor) [%] | inhibition at 1 µM [1] [%] | affinity for the 5-HT1A serotonin receptor subtype (in words) [2] |
| --- | --- | --- | --- |
| c1ccc2c(c1)OCC(CNCCOc1ccc3c(c1)CCC3)O2 (stereo not drawn) [Example 5, N-[2-[(2,3-Dihydro-1H-indan-5-yl)oxy]ethyl]-2,3-dihydro-1,4-benzodioxan-2-methanamine] | 100 | 76 |  |
| Fc1ccc(C(c2ccc(F)cc2)N2CCN(CCCOc3ccc4c(c3)CCC4)CC2)cc1 [Example 2, 1-[4-[3-[(2,3-Dihydro-1H-indan-5-yl)oxy]propyl]-1-piperazinyl]bis(4-fluorophenyl)methane] |  | 43 |  |
| c1cnc(N2CCN(CCCOc3ccc4c(c3)CCC4)CC2)nc1 [Example 1] | 85 | 91 |  |
| Clc1cncc(N2CCN(CCCOc3ccc4c(c3)CCC4)CC2)n1 [Example 3] | 82 | 48 |  |
| O=C1CC2(CCCC2)CC(=O)N1CCCCN1CCN(c2ncccn2)CC1 [buspirone] |  |  | potent affinity |
| c1ccc2c(c1)OCC(CNCCCOc1ccc3c(c1)CCC3)O2 (stereo not drawn) [Example 6, N-[3-[(2,3-Dihydro-1H-indan-5-yl)oxy]propyl]-2,3-dihydro-1,4-benzodioxan-2-methanamine] | 95 | 99 |  |
| c1ccc2c(c1)OCC(CNCCCCOc1ccc3c(c1)CCC3)O2 (stereo not drawn) [Example 4, N-[4-[(2,3-Dihydro-1H-indan-5-yl)oxy]butyl]-2,3-dihydro-1,4-benzodioxan-2-methanamine] | 97 | 92 |  |
